Key:
[1] = test system: Hep3B xenograft (human hepatocellular cancer cell line); assay: Hep3B cells xenograft in vivo study, antitumor activity; set-up: species or system BALB/c nu/nu female mice; settings: for Tumor growth inhibition % (TGI): 53 days
Protocol: The cell line used, Hep3B (also called HEP3B.1-7), was sourced from American Type Culture Collection (ATCC), verified free of […] contamination and verified for identity by short tandem repeat analysis of 9 markers.
For the human hepatocellular cancer cell line Hep3B xenografts, Hep3B cells were cultured in RPMI1640 medium containing 10% FBS at 37° C. in a 5% CO2 atmosphere and kept in exponential growth phase. For harvesting, the cells were washed with PBS, incubated with 0.25% trypsin-EDTA, and suspended in a 1:1 mixture of RPMI1640 medium containing 10% FBS. To prepare the inoculum at a final concentration of 5×10^7 cells/mL, the cell were spun and resuspended in RPMI1640 and Matrigel (Corning). To generate xenografts, 0.1-mL of the inoculum was injected subcutaneously into the right flank region of BALB/c nu/nu female mice, approximately 8-week-old, weighing 18-20 g, giving a final concentration of 5×10^6 cells/mouse.
When the mean tumor volume (TV) reached approximately 170 mm^3 (10 days after implantation), mice were selected based on their TVs, and were sorted into multiple treatment groups with 8 animals per group. Per os (PO) treatment with Compound 1 (300 mg/kg for Hep3B and 500 mg/kg for LIX125) alone or in combination with lenvatinib vehicle (control) or lenvatinib (10 mg/kg or 3 mg/kg) administered once daily (QD). Additional groups included treatment with lenvatinib (10 mg/kg or 3 mg/kg) in combination with Compound 1 vehicle. (Lenvatinib vehicle includes the vehicle in which lenvatinib is administered; but, without any lenvatinib. Likewise, Compound 1 vehicle includes the vehicle in which Compound 1 is administered; but, without any Compound 1.)
The administration volume (0.1 mL/10 g body weight) was calculated from the individual mouse body weight (BW) before administration. Body weights were measured daily and tumor measurements were performed twice weekly. Mice with >20% body weight loss compared with their day 1 body weight or bearing tumors with the longest diameter […] were immediately euthanized to prevent any pain or suffering for the animal.
(§1) The tumor volume (TV) in mm^3 was calculated according to the following formula: TV=length×width^2×0.5 length: largest diameter of tumor (mm) width: diameter perpendicular to length (mm). The tumor growth inhibition % (TGI) was calculated according to the following formula: Tumor growth inhibition % (TGI)=[(Average control TV day X−Treatment TV day X)/(Average control TV day X)]×100, where day X is any day of the treatment. The antitumor effects of the treatment, partial regression (PR) and complete regression (CR), stable disease (SD), and progressive disease (PD) were defined as follows: […]
PD: 3 consecutive measurements >120% of starting volume or 3 consecutive increasing measurements from best response; SD: 3 consecutive measurements >50% and <120% of starting volume; PR: 3 consecutive measurements <50% of starting volume; CR: 3 consecutive measurements <30 mm^3.
Data represent the mean±SEM for tumor volume (N=8). The differences in TV between groups were analyzed by multiple unpaired t-tests with significance determined using the Holm-Sidak method. Statistical analyses were performed using the GraphPad Prism version 7 (GraphPad Software, La Jolla, CA).
To determine whether lenvatinib enhances tumor growth inhibition (TGI) exerted by Compound 1, the Hep3B cell line was grown as a xenograft in female nude immunocompromised mice. Tumor bearing mice were orally treated daily for 53 days with (a) 300 mg/kg Compound 1 as single agent with lenvatinib vehicle; (b)(i) 10 mg/kg lenvatinib as a single agent with Compound 1 vehicle; (b)(ii) 3 mg/kg lenvatinib as a single agent with Compound 1 vehicle; (c)(i) 300 mg/kg Compound 1 and 10 mg/kg lenvatinib in combination; or (c)(ii) 300 mg/kg Compound 1 and 3 mg/kg lenvatinib in combination.

[2] = test system: LIX125, a hepatocellular carcinoma patient derived xenograft (PDX) model; assay: LIX125 PDX xenograft in vivo study, antitumor activity; settings: 32 days
Protocol: The human primary hepatocellular model LIX125 from ChemPartner (shangpharma.com) was implanted into the female severe combined immunodeficiency (SCID) mice. When the tumors developed in mice, they were sacrificed and the resected tumors were implanted into female NU/NU mice for tumor preservation, histological diagnosis and in vivo efficacy study. Solid tumor tissues were depleted of necrotic components, cut into 10-15 mg pieces and mixed. Three to five pieces were mixed with […] Matrigel and implanted into a flank of 6-8 week old female NU/NU immune compromised mice weighing 18-20 g. All of the primary tumors utilized in this study had undergone 3 to 5 passages in vivo and the tumor histology of each was maintained over the serial transplantation.
When the mean tumor volume (TV) reached approximately 170 mm^3 (10 days after implantation), mice were selected based on their TVs, and were sorted into multiple treatment groups with 8 animals per group. Per os (PO) treatment with Compound 1 (300 mg/kg for Hep3B and 500 mg/kg for LIX125) alone or in combination with lenvatinib vehicle (control) or lenvatinib (10 mg/kg or 3 mg/kg) administered once daily (QD). […]
The administration volume (0.1 mL/10 g body weight) was calculated from the individual mouse body weight (BW) before administration. Body weights were measured daily and tumor measurements were performed twice weekly. […]
as §1, with “treatment.” for “treatment. The antitumor effects of the treatment, partial regression (PR) and complete regression (CR), stable disease (SD), and progressive disease (PD) were defined as follows:”
Data represent the mean±SEM for tumor volume (N=8). The differences in TV between groups were analyzed by multiple unpaired t-tests with significance determined using the Holm-Sidak method. […]

Row | SMILES | Tumor growth inhibition % (TGI) ([1]; lenvatinib 3 mg/kg PO QD single agent with Compound 1 vehicle, vs vehicle controls P>0.05) [%] | animals with progressive disease (PD) ([1]; lenvatinib 3 mg/kg single agent) | Tumor growth inhibition % (TGI) ([1]; lenvatinib 10 mg/kg PO QD single agent with Compound 1 vehicle, vs vehicle controls P<0.00005) [%] | animals with progressive disease (PD) ([1]; lenvatinib 10 mg/kg single agent) | Tumor growth inhibition % (TGI) ([2]; lenvatinib 3 mg/kg PO QD single agent, vs vehicle control p>0.05) [%] | Tumor growth inhibition % (TGI) ([2]; lenvatinib 10 mg/kg PO QD single agent, vs vehicle control p<0.0007) [%] | Tumor growth inhibition % (TGI) ([1]; Compound 1 300 mg/kg PO QD single agent with lenvatinib vehicle, vs vehicle control P<0.00001) [%] | animals with progressive disease (PD) ([1]; Compound 1 300 mg/kg single agent, PD: 3 consecutive measurements >120% of starting volume or 3 consecutive increasing measurements from best response) | Tumor growth inhibition % (TGI) ([2]; Compound 1 500 mg/kg PO QD single agent, vs vehicle controls p>0.05) [%]
1 | COc1cc2nccc(Oc3ccc(NC(=O)NC4CC4)c(Cl)c3)c2cc1C(N)=O [Lenvatinib, 4-[3-chloro-4-(N′-cyclopropylureido)phenoxy]-7-methoxyquinoline-6-carboxamide] | 23 | 8/8 | 58 | 8/8 | 44 | 72 | – | – | –
2 | C=CC(=O)Nc1cc(N2CCN(CC)CC2)ccc1Nc1cc(N(C)C(=O)Nc2c(Cl)c(OC)cc(OC)c2Cl)ncn1 [Compound 1, N-(2-((6-(3-(2,6-dichloro-3,5-dimethoxyphenyl)-1-methylureido)pyrimidin-4-yl)amino)-5-(4-ethylpiperazin-1-yl)phenyl)acrylamide] | – | – | – | – | – | – | 81 | 6/8 | 60
